# Measured values published in ChEMBL document CHEMBL1201862, “PubChem BioAssay data set” (2004).
#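 Cells were grown in 96-well plates and exposed to each compound for 48 hours at five concentrations; endpoints were interpolated linearly between bracketing concentrations, or set to the highest concentration if not reached. The concentration for 50% growth inhibition is given as GI50.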 The source made the active and inactive calls. No stated cut-off is given here; in the data, active = GI50 up to about 1.1 µM and inactive = higher.
# What was measured:
# Assay in all cases: DTP human tumour cell line panel, 48 h
# [1] = test system: ACHN
# [2] = test system: MDA-N
# [3] = test system: IGROV-1
# [4] = test system: T47D
# [5] = test system: M14
# [6] = test system: PC-3
# [7] = test system: SK-OV-3
# [8] = test system: NCI/ADR-RES
# [9] = test system: SF-539
# [10] = test system: SK-MEL-2
# [11] = test system: NCI-H522
# [12] = test system: HOP-92
# [13] = test system: SF-268
# [14] = test system: SK-MEL-28
# [15] = test system: K562
# [16] = test system: MOLT-4
# [17] = test system: DU-145
# [18] = test system: CCRF-CEM
# [19] = test system: KM12
# [20] = test system: SR
# [21] = test system: 786-0
# [22] = test system: HCT-116
# [23] = test system: BT-549
# [24] = test system: U-251
# [25] = test system: RXF 393
# [26] = test system: A549
# [27] = test system: LOX IMVI
# [28] = test system: MDA-MB-231
# [29] = test system: OVCAR-8
# [30] = test system: MDA-MB-435
# [31] = test system: UO-31
# [32] = test system: HL-60
# [33] = test system: A498
# [34] = test system: TK-10
# [35] = test system: OVCAR-3
# [36] = test system: NCI-H226
# [37] = test system: CAKI-1
# [38] = test system: SNB-75
# [39] = test system: NCI-H460
# [40] = test system: SK-MEL-5
# [41] = test system: SNB-19
# [42] = test system: HCT-15
# [43] = test system: HCC 2998
# [44] = test system: RPMI-8226
# [45] = test system: Malme-3M
# [46] = test system: SF-295
# [47] = test system: HT-29
# [48] = test system: NCI-H23
# [49] = test system: SW-620
# [50] = test system: COLO 205
# [51] = test system: SN12C
# [52] = test system: Hs-578T
# [53] = test system: OVCAR-4
# [54] = test system: HOP-62
# [55] = test system: UACC-257
# [56] = test system: MCF7
# [57] = test system: EKVX
# [58] = test system: OVCAR-5
# [59] = test system: UACC-62
smiles,measurement,setting,value
CCOC(=O)c1c(N/C(S)=N/c2ccccc2)sc2c1CCOC2,GI50,[1],97.3 µM (inactive)
same,GI50,[2],50.1 µM (inactive)
same,GI50,[3],27.5 µM (inactive)
same,GI50,[4],24 µM (inactive)
same,GI50,[5],39.1 µM (inactive)
same,GI50,[6],61.2 µM (inactive)
same,GI50,[7],85.9 µM (inactive)
same,GI50,[8],60.4 µM (inactive)
same,GI50,[9],> 100 µM (inactive)
same,GI50,[10],74.6 µM (inactive)
same,GI50,[11],64.9 µM (inactive)
same,GI50,[12],24.9 µM (inactive)
same,GI50,[13],64.1 µM (inactive)
same,GI50,[14],27.5 µM (inactive)
same,GI50,[15],> 100 µM (inactive)
same,GI50,[16],69.5 µM (inactive)
same,GI50,[17],80.5 µM (inactive)
same,GI50,[18],63.7 µM (inactive)
same,GI50,[19],69.5 µM (inactive)
same,GI50,[20],53.5 µM (inactive)
same,GI50,[21],> 100 µM (inactive)
same,GI50,[22],37.2 µM (inactive)
same,GI50,[23],2.08 µM (inactive)
same,GI50,[24],> 100 µM (inactive)
same,GI50,[25],69.2 µM (inactive)
same,GI50,[26],53.1 µM (inactive)
same,GI50,[27],52.7 µM (inactive)
same,GI50,[28],> 100 µM (inactive)
same,GI50,[29],> 100 µM (inactive)
same,GI50,[30],56.6 µM (inactive)
same,GI50,[31],45.9 µM (inactive)
same,GI50,[32],24 µM (inactive)
same,GI50,[33],37 µM (inactive)
same,GI50,[34],62.8 µM (inactive)
same,GI50,[35],87.9 µM (inactive)
same,GI50,[36],> 100 µM (inactive)
same,GI50,[37],43.3 µM (inactive)
same,GI50,[38],17.5 µM (inactive)
same,GI50,[39],40.2 µM (inactive)
same,GI50,[40],53.1 µM (inactive)
same,GI50,[41],> 100 µM (inactive)
same,GI50,[42],46.7 µM
same,GI50,[43],70.1 µM (inactive)
same,GI50,[44],55.5 µM (inactive)
same,GI50,[45],52.1 µM (inactive)
same,GI50,[46],46.8 µM (inactive)
same,GI50,[47],89.9 µM (inactive)
same,GI50,[48],26.4 µM (inactive)
same,GI50,[49],> 100 µM (inactive)
same,GI50,[50],> 100 µM (inactive)
same,GI50,[51],48.8 µM (inactive)
same,GI50,[52],67.3 µM (inactive)
same,GI50,[53],61.5 µM (inactive)
same,GI50,[54],92 µM (inactive)
same,GI50,[55],64 µM (inactive)
same,GI50,[56],33 µM (inactive)
same,GI50,[57],79.6 µM (inactive)
same,GI50,[58],38.4 µM (inactive)
same,GI50,[59],28.9 µM (inactive)
CCCCCOC(=O)c1cc2cc(CCl)ccc2oc1=O,GI50,[1],0.537 µM (active)
same,GI50,[2],2.92 µM (inactive)
same,GI50,[3],10.3 µM (inactive)
same,GI50,[4],4.55 µM (inactive)
same,GI50,[5],1.51 µM (inactive)
same,GI50,[6],4.07 µM (inactive)
same,GI50,[7],16.9 µM (inactive)
same,GI50,[8],17.3 µM (inactive)
same,GI50,[9],27.6 µM (inactive)
same,GI50,[10],0.466 µM (active)
same,GI50,[11],0.213 µM (active)
same,GI50,[12],2.62 µM (inactive)
same,GI50,[13],13.2 µM (inactive)
same,GI50,[14],6.49 µM (inactive)
same,GI50,[15],3.79 µM (inactive)
same,GI50,[16],7.33 µM (inactive)
same,GI50,[17],3.86 µM (inactive)
same,GI50,[18],13.1 µM (inactive)
same,GI50,[19],13.6 µM (inactive)
same,GI50,[20],8.07 µM (inactive)
same,GI50,[21],3.02 µM (inactive)
same,GI50,[22],10.1 µM (inactive)
same,GI50,[23],11.9 µM (inactive)
same,GI50,[24],16.8 µM (inactive)
same,GI50,[25],2.18 µM (inactive)
same,GI50,[26],1.97 µM (inactive)
same,GI50,[27],14.4 µM (inactive)
same,GI50,[28],16.5 µM (inactive)
same,GI50,[29],17.9 µM (inactive)
same,GI50,[30],1.85 µM (inactive)
same,GI50,[31],2.06 µM (inactive)
same,GI50,[32],0.552 µM (active)
same,GI50,[33],2.44 µM (inactive)
same,GI50,[34],0.957 µM (active)
same,GI50,[35],2.82 µM (inactive)
same,GI50,[36],15.7 µM (inactive)
same,GI50,[37],1.75 µM (inactive)
same,GI50,[38],8.22 µM (inactive)
same,GI50,[39],17.2 µM (inactive)
same,GI50,[40],2.62 µM (inactive)
same,GI50,[41],18.7 µM (inactive)
same,GI50,[42],3.69 µM
same,GI50,[43],14.9 µM (inactive)
same,GI50,[44],18.9 µM (inactive)
same,GI50,[45],0.274 µM (active)
same,GI50,[46],13.7 µM (inactive)
same,GI50,[47],7.01 µM (inactive)
same,GI50,[48],1.5 µM (inactive)
same,GI50,[49],12.1 µM (inactive)
same,GI50,[50],2.36 µM (inactive)
same,GI50,[51],9.59 µM (inactive)
same,GI50,[52],7.23 µM (inactive)
same,GI50,[53],4.13 µM (inactive)
same,GI50,[54],8.28 µM (inactive)
same,GI50,[55],1.09 µM (active)
same,GI50,[56],10.4 µM (inactive)
same,GI50,[57],3.37 µM (inactive)
same,GI50,[58],14.4 µM (inactive)
same,GI50,[59],1.64 µM (inactive)
